Assay results taken from patent US20240009170A1, “INHIBITION OF GLYCOGEN SYNTHASE KINASE-3 (GSK-3)” (Brown University, priority 2020, published 2024).

Experiments:
Assay type in all cases: cell-based, Human
[1] = system: HCT-116 colorectal cancer cells; test: Co-culture of HCT-116 and TALL-104 cells with or without αPD-1 therapy; conditions: compared with the other culture conditions
Experimental: Immune cell co-culture experiments. Co-culture experiments were conducted with GFP+ SW480 or HCT-116 colorectal cancer cells and either NK-92 natural killer cells or TALL-104 T cells in a 48-well plate, in the presence or absence of 9-ING-41. HCT-116 cells were labeled using CellTracker™ Green CMFDA (5-chloromethylfluorescein diacetate), immune cells (NK-92, TALL-104) were labeled using CellTracker™ Blue CMAC Dye (7-amino-4-chloromethylcoumarin), and ethidium homodimer-1 (EthD-1) was used as a marker of cell death (Invitrogen, Thermo Fisher Scientific, Waltham, MA, USA).
9-ING-41 increases tumor cell death in combination with αPD-1 therapy in a co-culture of HCT-116 colorectal cancer cells and immune cells. The inventors were interested in the applicability of GS3K-3 inhibitors such as 9-ING-41 in combination with immune checkpoint blockade. The inventors next performed co-cultures of immune cells (TALL-104, NK-92) and tumor cells (HCT-116) in the presence or absence of 9-ING-41, as well as either pembrolizumab® or nivolumab®, two humanized monoclonal antibodies against PD-1. The inventors evaluated HCT-116 cells in this co-culture model to determine if the 9-ING-41-mediated increase in immune cell-mediated SW480 cell killing could be reproduced in another colorectal cancer cell line.

NK-92 cells = test: Cytokine profile of immune cell culture supernatant, NK-92; conditions: 1 μM, 48 hours
Experimental: Collection of cell culture supernatants used in cytokine measurements. Cells were plated at 3.5×10^4 cells in a 48-well plate (Thermo Fisher Scientific, Waltham, MA, USA) in complete medium and incubated at 37° C. with 5% CO2. At twenty-four hours after plating, almost all the tumor cells were adherent to the bottom of the flask and the complete medium was replaced with drug-containing medium. Subsequently, the culture supernatants were collected after forty-eight hours of incubation and were frozen at −80° C. until the measurement of cytokines was performed. The day of analysis, samples were thawed and centrifuged to remove cellular debris.
Human cytokine profiling. Human cell line culture supernatants were analyzed using an R&D systems Human Premixed Multi-Analyte Kit (R&D Systems, Inc., Minneapolis, MN, USA) and a Luminex 200 Instrument (LX200-XPON-RUO, Luminex Corporation, Austin, TX, USA) according to the manufacturer's instructions. […]
9-ING-41 increases secreted cytotoxic proteins IFN-v, Granzyme B, and TRAIL in immune cells. […] Here, the inventors determined how 9-ING-41 treatment impacts the immune cell cytokinome. […]

HCT-116 = test: Flow cytometric analysis of cell surface markers, HCT-116; conditions: post-treatment
Experimental: (§1) FIG. 12 is a set of bar graphs showing flow cytometric analyses of cell surface markers of tumor and immune cells treated with 9-ING-41 in vitro. FIG. 12(A) HCT-116, FIG. 12(B) HT-29, FIG. 12(C) TALL-104, and FIG. 12(D) NK-92 cells were treated with indicated concentrations of 9-ING-41 for forty-eight hours, stained for indicated cell surface marker expression, and analyzed with a BD LSRII. Statistical significance was determined using two-tailed unpaired T tests.
(§2) To further understand the differential 9-ING-41-mediated impacts on protein expression, the inventors treated tumor and immune cells in vitro with 9-ING-41, then performed a flow cytometric analysis for expression of cell surface markers. […] A similar trend occurred in HT-29 cells, although not statistically significant. […] FIG. 10(C). […] FIG. 10(D).

NK-92 = test: Flow cytometric analysis of cell surface markers, NK-92; conditions: 48 hours
Experimental: as §1, §2

In the case of `Cn1cc(C2=C(c3coc4ccc(F)cc34)C(=O)NC2=O)c2cc3c(cc21)OCO3` [9-ING-41], the “cell death after twenty-four hours of co-culture with TALL-104” value [1] is reported as “even greater amount of cell death”, the “IFN-γ and TRAIL” value (NK-92 cells) is reported as “increases” and the “concentration of secreted granzyme B” value (NK-92 cells) is reported as “decreases”. For the same compound, the DR5 expression (HCT-116) was “significant decreased”, the ICAM-1 expression (HCT-116) was “significant increase” and the “HLA-E and PD-L1 surface expression” value (HCT-116; 48 hours) was “statistically significant increase”. The “TRAIL and LAG3 surface expression” value (NK-92) was “increases” and the “checkpoint molecule NKG2A surface expression” value (NK-92) was “statistically significant decreases”.
